Results: US7632817B2, “Peptide decoys for the preparation of medicaments intended for the prevention or treatment of autoimmune pathologies or disorders linked to the appearance of antibodies directed against exogenous proteins” (Centre National de la Recherche Scientifique, priority 2001, dated 2009)
Where no end group is shown, it is not given here.

Key:
[1] = system: 2C11 antibody (binding to factor VIII); experiment: ELISA: inhibition of binding of 2C11 antibody to immobilized FVIII by soluble peptides; set-up: species or system human
Protocol: The FVIII is immobilized on the ON plate at 4° C. In parallel, the inhibitor antibody is preincubated with its epitope peptide(s) in the ON range at 4° C. in 0.1% PBS-T-2% milk. After saturation for 1 hour with 0.1% PBS-T-2% milk, the Ab-peptide mixtures are incubated with the immobilized FVIII for 2 hours at 37° C. Between each of these incubations, 3 washings with 0.1% PBS-T are carried out except after the saturation. Detection of the FVIII-Ab complex is achieved by a mouse or human anti-IgG coupled to peroxidase diluted to 1:3000 incubated for 1 hour at 37° C. After 5 washings with 0.1% PBS-T, the peroxidase substrate (OPD) is added. The reaction takes place for 30 minutes in the dark then measurement of the absorbance is carried out at 450 nm. After stopping the reaction by the addition of H2SO4 4N, a new measurement is carried out at 490 nm.
The blocking activity of the decoys can be verified in vitro in an ELISA test. […] The neutralizing ability of the decoy can be confirmed in a functional test such as the Bethesda Test (method of Kasper, [Kasper et al., 1975, Thromb. Diath. Haemorrh. 34, 875-6]).
The Inventors studied the ability of these soluble peptides to inhibit the binding of the 2C11 antibody to factor VIII in an ELISA test in vitro in the following manner: immobilization of FVIII, pre-incubation of 2C11 with the soluble peptides in the range (200 μM, 20 μM, 2 μM, 200 nM, 20 nM, 2 nM) overnight at 4° C., then incubation of this premixture on the FVIII, then development of the 2C11 antibody. The results obtained are indicated hereafter.

2C11 antibody [2] = experiment: Bethesda functional coagulation test: neutralization of the inhibiting activity of 2C11 by peptides; type: biochemical, human; conditions: for neutralization of the inhibiting activity of 2C11 (in words): 2C11 3.5 nM
From the text: This functional test (Kasper, C. K. & Pool, J. G. (1975) Letter: Measurement of mild factor VIII inhibitors in Bethesda units, Thromb Diath Haemorrh. 34, 875-6) consists of measuring the time necessary for a mixture composed of different coagulation factors (FIXa, FVIII, phospholipides, calcium etc.) in order to coagulate completely. The inhibiting effect of an antibody is characterized in such a test by an extension of the coagulation time, the inhibiting ability of the antibody becomes greater as the extension of the coagulation time increases. The inhibiting character of an antibody is expressed in Bethesda units, which corresponds to the reciprocal concentration of antibodies in order to neutralize 50% of the coagulant activity of the FVIII. In contrast, the neutralizing effect of the peptides is translated by a return to the initial coagulation time obtained in the absence of inhibitor.
The functional test followed is derived from the abovementioned test described by Kasper. The anti-FVIII monoclonal antibodies are diluted in an 0.05 M imidazole buffer, pH 7.3. An equal volume of this preparation (250 μl) with normal plasma buffered in imidazole (0.1 M, pH 7.4) are mixed and incubated for 2 hours at 37° C. Similarly, normal plasma buffered in imidazole is mixed with a non-specific antibody which constitutes the control. The inhibiting activity of an antibody is read from a semi-logarithmic graph representing the correlation between the residual activity of the FVIII and the inhibiting activity.
This mixture is then treated as above.
Firstly, the Inventors evaluated in a functional coagulation test (Bethesda test) the ability of peptide 107 to restore the procoagulant activity of FVIII in the presence of 2C11. FIG. 2 depicts the dose-dependent neutralization of the inhibiting activity of 2C11 by peptide 107. […] However, higher peptide concentrations are necessary in order to achieve an effectiveness similar to that of peptide 107 (data not shown).
FIG. 2 represents the evolution of the activity of factor VIII, evaluated by the Bethesda test, in the presence of 3.5 nM of 2C11 antibody as a function of peptide concentration. The 2C11 antibody was incubated overnight at 4° C. in the presence of a control peptide or peptide 107 (SCHAWSNRRTCR) (SEQ ID NO: 10) in variable concentration. The factor VIII was then incubated for 2 hours at 37° C. with these peptide-antibody mixtures or with peptide 107 alone, then its residual activity was measured with a coagulometer, in one stage.

factor VIII = experiment: Bethesda test: effect on procoagulant activity of factor VIII; type: biochemical, human; conditions: no antibody
From the text: This functional test (Kasper, C. K. & Pool, J. G. (1975) Letter: Measurement of mild factor VIII inhibitors in Bethesda units, Thromb Diath Haemorrh. 34, 875-6) consists of measuring the time necessary for a mixture composed of different coagulation factors (FIXa, FVIII, phospholipides, calcium etc.) in order to coagulate completely. The inhibiting effect of an antibody is characterized in such a test by an extension of the coagulation time, the inhibiting ability of the antibody becomes greater as the extension of the coagulation time increases. […]
The functional test followed is derived from the abovementioned test described by Kasper. […] The inhibiting activity of an antibody is read from a semi-logarithmic graph representing the correlation between the residual activity of the FVIII and the inhibiting activity.
FIG. 1 represents the effect of the 2C11 antibody on the activity of factor VIII evaluated by the Bethesda test. Factor VIII was incubated in the presence of 3.5 nM of 2C11 antibody for 2 hours at 37° C., the residual activity of factor VIII was then measured with a coagulometer, in one stage.
FIG. 2 represents the evolution of the activity of factor VIII, evaluated by the Bethesda test, in the presence of 3.5 nM of 2C11 antibody as a function of peptide concentration. […]

2C11 antibody [3] = experiment: In vivo neutralization of 2C11 in mice deficient in FVIII given human FVIII; set-up: species or system mouse
Protocol: Secondly, the neutralization properties of peptide 107 were studied in vivo, using a mouse model deficient in FVIII. […] Having determined this, 2C11 antibody ([…]) incubated alone, in the presence of peptide 107, or a control peptide (650 μM and 700 μM, respectively) was injected into the tail vein of three groups of mice respectively. Thirty minutes later, the FVIII plasma count of these mice was reconstituted by the injection of 0.5 UI of human FVIII and after fifteen minutes the plasma procoagulant activity was measured.
The 2C11 antibody (16.5 nM) or a mixture containing the 2C11 antibody (16.5 nM) and peptide 107 (650 μM) or a control peptide (700 μM) was injected into the tail vein of a “knock out” mouse, deficient in factor VIII, at a rate of 2.5 μg of 2C11 antibody, 1 mg of peptide 107 and 1 mg of control peptide. After 30 minutes, 0.5 UI of human factor VIII was injected and the plasma procoagulant activity was then measured by a chromogenic test 15 minutes later.
The percentage of residual activity of factor VIII is represented on the Y-axis. Bar A represents the effect of the injection of factor VIII without prior injection of antibodies (100% of residual activity). Bar B represents the effect of the injection of the 2C11 antibody alone prior to the injection of factor VIII. […]

[4] = system: FVIII inhibitors in serums of hemophilia patients; experiment: Reactivity of serums of hemophilia patients with inhibitors with peptide 107; type: binding, human; conditions: out of 12 serums of hemophilia patients with inhibitors; preliminary study
From the text: Thirdly, the Inventors looked at whether the neutralizing properties of peptide 107 vis-à-vis 2C11 could also be applied to other serums of hemophilia patients with inhibitors.

[5] = peptide concentration 0.002 (2 nM)
[6] = peptide concentration 0.02 (20 nM)
[7] = peptide concentration 20 (range: 20 μM)
[8] = peptide concentration 200 (range: 200 μM), pre-incubation overnight at 4° C.

Row | Sequence | % inhibition of 2C11 binding to FVIII [1, 5] | % inhibition of 2C11 binding to FVIII [1, 6] | % inhibition of 2C11 binding to FVIII ([1]; peptide concentration 2 (2 μM)) | % inhibition of 2C11 binding to FVIII [1, 7] | % inhibition of 2C11 binding to FVIII [1, 8] | neutralization of the inhibiting activity of 2C11 (in words) (2C11 antibody [2]) | inhibition of the 2C11 Ab/FVIII bond (in words) [1] | IC50 (2C11 antibody [2]; 2C11 concentration 3.5 nM) | peptide concentration for total neutralization of 2C11 inhibiting effect (2C11 antibody [2]; 2C11 concentration 3.5 nM) | effect of peptide incubated with FVIII alone on procoagulant activity of FVIII (factor VIII) | procoagulant activity of the FVIII maintained (2C11 antibody [3]; 2C11 16.7 nM + peptide 650 μM injected in tail vein, 0.5 UI human FVIII after 30 min, measured 15 min later) | neutralizing effect on 2C11 in vivo (in words) (2C11 antibody [3]; FVIII-deficient mice, peptide 107 650 μM, control peptide 700 μM) | number of patient serums reacting with the peptide [4]
1 | CMKWSNRSSRWC (Ac-CMKWSNRSSRWC; cysteine pairing not given here) [compound 106] | 0% | 0% | 0.00% | 21.99% | 36.56% | effectively neutralize | – | – | – | – | – | – | –
2 | CSKWHNRSKRHC (Ac-CSKWHNRSKRHC; cysteine pairing not given here) [compound 105] | 0% | 0% | 10.27% | 45.04% | 75.58% | effectively neutralize | – | – | – | – | – | – | –
3 | ECGSHAWGRRCK (chain 1 Ac-ECGSHAWGRRCK; chain 2 Ac-ECGSHAWGRRCK; cysteine pairing not given here) [compound 104] | 0% | 0% | 13.44% | 30.68% | 63.71% | effectively neutralize | – | – | – | – | – | – | –
4 | KCGRWSNRSSCT (Ac-KCGRWSNRSSCT; cysteine pairing not given here) [compound 103] | 0% | 0% | 3.47% | 28.26% | 62.73% | effectively neutralize | – | – | – | – | – | – | –
5 | QCHTWSNRRSCL (Ac-QCHTWSNRRSCL; cysteine pairing not given here) [compound 108] | 0% | 0% | 15.79% | 25.99% | 60.69% | effectively neutralize | – | – | – | – | – | – | –
6 | RCHAWSNRKSCV (Ac-RCHAWSNRKSCV; cysteine pairing not given here) [compound 109] | 0% | 0% | 12.46% | 37.48% | 75.05% | effectively neutralize | – | – | – | – | – | – | –
7 | SCHAWSNRRTCR [peptide 107] | 0% | 0% | 37.33% | 80.04% | 90.48% | makes it possible to neutralize the effect of the 2C11 antibody | the most effective | 19 µM | ~100 µM | does not at all modify the procoagulant activity of the FVIII | 52% | specifically neutralizes the effect of the 2C11 antibody in vivo | 2
